Test results from ChEMBL document CHEMBL1649173, “Single-dose escalation and multiple-dose safety, tolerability, and pharmacokinetics of IDX899, a candidate human immunodeficiency virus type 1 nonnucleoside reverse transcriptase inhibitor, in healthy subjects” (Antimicrob Agents Chemother, 2009).

Legend:
Assay type in all cases: ADME, organism-based
[1] = Cmax in fasted state healthy human at 100 mg, po administered as single dose; parameters: dose 100 mg, route oral; details: in vivo
[2] = Cmax in fasted state healthy human at 200 mg, po administered as single dose; parameters: dose 200 mg, route oral; details: in vivo
[3] = Cmax in fed state healthy human at 200 mg, po administered as single dose; parameters: dose 200 mg, route oral; details: in vivo
[4] = Cmax in fasted state healthy human at 400 mg, po administered as single dose; parameters: dose 400 mg, route oral; details: in vivo
[5] = Cmax in fed state healthy human at 400 mg, po administered as single dose; parameters: dose 400 mg, route oral; details: in vivo
[6] = Cmax in fed state female healthy human at 400 mg, po administered as single dose; parameters: dose 400 mg, route oral; details: in vivo
[7] = Cmax in fed state healthy human at 800 mg, po administered as single dose; parameters: dose 800 mg, route oral; details: in vivo
[8] = Cmax in fed state healthy human at 1200 mg, po administered as single dose; parameters: dose 1200 mg, route oral; details: in vivo
[9] = Tmax in fasted state healthy human at 50 mg, po administered as single dose; details: in vivo
[10] = Tmax in fasted state healthy human at 100 mg, po administered as single dose; details: in vivo
[11] = Tmax in fasted state healthy human at 200 mg, po administered as single dose; details: in vivo
[12] = Tmax in fed state healthy human at 200 mg, po administered as single dose; details: in vivo
[13] = Tmax in fasted state healthy human at 400 mg, po administered as single dose; details: in vivo
[14] = Tmax in fed state healthy human at 400 mg, po administered as single dose; details: in vivo
[15] = Tmax in fed state female healthy human at 400 mg, po administered as single dose; details: in vivo
[16] = Tmax in fed state healthy human at 800 mg, po administered as single dose; details: in vivo
[17] = Tmax in fed state healthy human at 1200 mg, po administered as single dose; details: in vivo
[18] = Half life in fasted state healthy human at 50 mg, po administered as single dose; details: in vivo
[19] = Half life in fasted state healthy human at 100 mg, po administered as single dose; details: in vivo
[20] = Half life in fasted state healthy human at 200 mg, po administered as single dose; details: in vivo
[21] = Half life in fed state healthy human at 200 mg, po administered as single dose; details: in vivo
[22] = Half life in fasted state healthy human at 400 mg, po administered as single dose; details: in vivo
[23] = Half life in fed state healthy human at 400 mg, po administered as single dose; details: in vivo
[24] = Half life in fed state female healthy human at 400 mg, po administered as single dose; details: in vivo
[25] = Half life in fed state healthy human at 800 mg, po administered as single dose; details: in vivo
[26] = Half life in fed state healthy human at 1200 mg, po administered as single dose; details: in vivo
[27] = Plasma concentration in fasted state healthy human at 50 mg, po administered as single dose after 24 hrs
[28] = Plasma concentration in fasted state healthy human at 100 mg, po administered as single dose after 24 hrs
[29] = Plasma concentration in fasted state healthy human at 200 mg, po administered as single dose after 24 hrs
[30] = Plasma concentration in fed state healthy human at 200 mg, po administered as single dose after 24 hrs
[31] = Plasma concentration in fasted state healthy human at 400 mg, po administered as single dose after 24 hrs
[32] = Plasma concentration in fed state healthy human at 400 mg, po administered as single dose after 24 hrs
[33] = Plasma concentration in fed state female healthy human at 400 mg, po administered as single dose after 24 hrs
[34] = Plasma concentration in fed state healthy human at 800 mg, po administered as single dose after 24 hrs
[35] = Plasma concentration in fed state healthy human at 1200 mg, po administered as single dose after 24 hrs
[36] = Apparent total plasma clearance in fasted state healthy human at 50 mg, po administered as single dose
[37] = Apparent total plasma clearance in fasted state healthy human at 100 mg, po administered as single dose
[38] = Apparent total plasma clearance in fasted state healthy human at 200 mg, po administered as single dose
[39] = Apparent total plasma clearance in fed state healthy human at 200 mg, po administered as single dose
[40] = Apparent total plasma clearance in fasted state healthy human at 400 mg, po administered as single dose
[41] = Apparent total plasma clearance in fed state healthy human at 400 mg, po administered as single dose
[42] = Apparent total plasma clearance in fed state female healthy human at 400 mg, po administered as single dose
[43] = Apparent total plasma clearance in fed state healthy human at 800 mg, po administered as single dose
[44] = Apparent total plasma clearance in fed state healthy human at 1200 mg, po administered as single dose 0
[45] = Apparent total volume of distribution in fasted state healthy human at 50 mg, po administered as single dose; details: in vivo, read-out: Vz/F
[46] = Apparent total volume of distribution in fasted state healthy human at 100 mg, po administered as single dose; details: in vivo, read-out: Vz/F
[47] = Apparent total volume of distribution in fasted state healthy human at 200 mg, po administered as single dose; details: in vivo, read-out: Vz/F
[48] = Apparent total volume of distribution in fed state healthy human at 200 mg, po administered as single dose; details: in vivo, read-out: Vz/F
[49] = Apparent total volume of distribution in fasted state healthy human at 400 mg, po administered as single dose; details: in vivo, read-out: Vz/F
[50] = Apparent total volume of distribution in fed state healthy human at 400 mg, po administered as single dose; details: in vivo, read-out: Vz/F

COP(=O)(c1cc(C)cc(/C=C/C#N)c1)c1c(C(N)=O)[nH]c2ccc(Cl)cc12 (stereo not given)
Cmax [1]: 3000 ng/mL | Cmax [2]: 700 ng/mL | Cmax [3]: 1300 ng/mL | Cmax [4]: 1100 ng/mL | Cmax [5]: 2400 ng/mL | Cmax [6]: 1900 ng/mL | Cmax [7]: 3000 ng/mL | Cmax [8]: 5600 ng/mL | Tmax [9]: 1.5 h | Tmax [10]: 1.5 h | Tmax [11]: 1.5 h | Tmax [12]: 7 h | Tmax [13]: 1.8 h | Tmax [14]: 7 h | Tmax [15]: 5 h | Tmax [16]: 6 h | Tmax [17]: 10.1 h | half-life [18]: 6.2 h | half-life [19]: 6.8 h | half-life [20]: 11.9 h | half-life [21]: 9.5 h | half-life [22]: 14.6 h | half-life [23]: 9.8 h | half-life [24]: 13.9 h | half-life [25]: 11.5 h | half-life [26]: 7.9 h | concentration at 24 h [27]: 50 ng/mL | concentration at 24 h [28]: 90 ng/mL | concentration at 24 h [29]: 70 ng/mL | concentration at 24 h [30]: 190 ng/mL | concentration at 24 h [31]: 160 ng/mL | concentration at 24 h [32]: 360 ng/mL | concentration at 24 h [33]: 290 ng/mL | concentration at 24 h [34]: 540 ng/mL | concentration at 24 h [35]: 2020 ng/mL | CL/F [36]: 103 mL/min | CL/F [37]: 118 mL/min | CL/F [38]: 555 mL/min | CL/F [39]: 230 mL/min | CL/F [40]: 480 mL/min | CL/F [41]: 215 mL/min | CL/F [42]: 268 mL/min | CL/F [43]: 297 mL/min | CL/F [44]: 197 mL/min | Vd/F [45]: 53.3 L | Vd/F [46]: 66.3 L | Vd/F [47]: 555 L | Vd/F [48]: 201 L | Vd/F [49]: 606 L | Vd/F [50]: 166 L
